BindingDB's records for PubMed 37487305 (Zhengzhou University)

Target: Histone deacetylase 1 (Homo sapiens, UniProt Q13547)
Assay: Inhibition of HDAC1 (unknown origin) by fluorescence based microplate reader assay

Sequence of Histone deacetylase 1 (Q13547 whole entry): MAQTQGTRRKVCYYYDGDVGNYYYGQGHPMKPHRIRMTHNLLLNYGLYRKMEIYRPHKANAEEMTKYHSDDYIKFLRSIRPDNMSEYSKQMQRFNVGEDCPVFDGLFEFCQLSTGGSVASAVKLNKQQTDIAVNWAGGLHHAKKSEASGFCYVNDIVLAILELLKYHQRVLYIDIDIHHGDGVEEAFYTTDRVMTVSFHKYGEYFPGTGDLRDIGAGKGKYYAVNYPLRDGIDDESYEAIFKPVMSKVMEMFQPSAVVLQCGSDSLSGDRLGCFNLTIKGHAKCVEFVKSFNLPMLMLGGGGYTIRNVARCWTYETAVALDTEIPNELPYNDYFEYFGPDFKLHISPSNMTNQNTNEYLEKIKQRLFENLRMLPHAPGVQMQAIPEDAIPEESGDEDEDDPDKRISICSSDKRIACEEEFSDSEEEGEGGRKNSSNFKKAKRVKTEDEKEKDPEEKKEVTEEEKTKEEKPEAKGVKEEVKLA

IC50: 160 nM
SMILES: CN1c2ccccc2C(=O)N2[C@H](C(=O)Nc3ccc(C(=O)Nc4ccccc4N)cc3)Cc3c([nH]c4ccccc34)[C@@H]12
